In patent US20020155172A1, “Methods and compounds for decreasing cell toxicity or death” (priority 2000, published 2002):

Key:
[1] = test system: HeLa cells co-transfected with a luciferase construct together with Q79-GFP; experiment: Protein synthesis by luciferase activity in Q79 expressing HeLa cells; assay type: cell-based; details: 48 hours after transfection
HSP40 and HSP70 = experiment: Expression of chaperone proteins; assay type: cell-based; details: Q79-expressing (HA-Q79) HeLa cells
Excerpt: We examined whether the destabilizing effect of Congo red on polyglutamine oligomers in HeLa cells expressing expanded polyglutamine repeats was caused indirectly through increased expression of endogenous chaperones (FIG. 5E). Lysates from Congo red-treated or control cells expressing expanded polyglutamine repeats (HA-[…]) were separated by SDS-PAGE and probed with anti-HSP70, anti-HSP40, and anti-HA antibodies to detect polyglutamine repeats.

R62 mice = experiment: Survival; assay type: in vivo; details: infused intraperitoneally
Excerpt: FIG. 10G is a graph of the effect of PBS (vehicle; delivered intraperitoneally) or Congo red, infused intraperitoneally, on survival of HD transgenic mice.
In addition, the ability of Congo red to inhibit the formation as well as to disrupt preformed polyglutamine oligomers allowed us to examine the role of polyglutamine aggregates in neuronal dysfunction and degeneration characteristic of polyglutamine expansion diseases. In these studies, we used the animal model of Huntington's disease (R62), which expresses the truncated form of huntingtin with 139 CAG repeats Mangiarini et al. (supra). We took advantage of our finding that in addition to inhibiting polyglutamine oligomerization, Congo red also disrupts pre-formed oligomers, thus allowing assessment of the impact of Congo red on disease progression after formation of polyglutamine aggregates and the onset of symptoms. R62 transgenic mice and CBAxC57B1/6 F1 wild type littermates were obtained from Jackson Laboratories (Bar Harbor, Me.) at the age of five weeks. […]
The initial abnormal neurological signs of R62 mice include dyskinesia of the hindlimbs when mice were suspended by the tail, and irregular gait. […] The effect of Congo red on motor performance in R62 mice was also assessed by rotarod studies. […]

cells; primary neurons = experiment: Compound toxicity in cells; assay type: cell-based
Q79-GFP aggregates = experiment: Decrease of pre-formed Q79-GFP aggregates in vitro; assay type: biochemical
Experimental: Q79-GFP was expressed and purified from bacteria using standard molecular biology techniques. These fusion proteins form aggregates in vitro which can be viewed under an inverted fluorescence microscope. The Q79-GFP aggregates were administered Congo red (1 nM to 100 μM) and the ability of Congo red to decrease the aggregate was visually assessed.
This assay was also carried out on Q79-GFP aggregates that were administered compounds known to disrupt other types of aggregates, for example, beta-amyloid fibril aggregates. The Q79-GFP aggregates were administered Iota-carrageenan, dextran, minocycline, rolitetracycline, or Chrysamine G Congo red (100 μM each), and visually examined for the effect of each compound on disruption of the aggregate, as well as the density and size of the aggregates.

caspase-8 = experiment: Activation of caspase-8 by Western blot; assay type: cell-based; details: HeLa, HA-tagged Q79-GFP
Experimental: Expanded polyglutamine repeats recruit and activate caspase-8 (Sanchez et al., supra). We tested if the treatment of cells expressing expanded polyglutamine repeats with Congo red inhibits the activation of caspase-8. HeLa cells were transfected with a hemagglutinin-tagged (HA) […]-GFP construct in the presence or absence of Congo red and the cell lysates were analyzed by Western blot analysis for the expression of caspase-8, or for expression of HA. The appearance of a 45 kilodalton active caspase-8 fragment was detected at 24 hours after transfection, which was before significant loss of cytoplasmic membrane integrity and morphological changes occurred, and near the time of ATP loss (FIG. 5E).

How did the “loss of luciferase activity (protein synthesis)” value [1] turn out when `Nc1c(/N=N/c2ccc(-c3ccc(/N=N/c4cc(S(=O)(=O)O)c5ccccc5c4N)cc3)cc2)cc(S(=O)(=O)O)c2ccccc12` [Congo red, diphenyldiazo-bis-alpha-napthylaminesulfonate] was run?
The value was “prevented the loss of luciferase activity”.

What about the “expression of HSP40 or HSP70” value (HSP40 and HSP70) of the same compound?
Its value is “did not induce the expression of HSP40 or HSP70”.

And the mean survival length (R62 mice)?
Its mean survival length is 106 days.

What about the “compound toxicity in cells” value (cells; primary neurons) of the same compound?
The value was “not toxic even to primary neurons”.

And the “decrease of pre-formed polyglutamine aggregates” value (Q79-GFP aggregates; 1 nM to 100 μM, visually assessed)?
The value was “decreased the pre-formed polyglutamine aggregates”.

What about the “dissolution or disruption of pre-formed expanded polyglutamine repeat aggregates” value (Q79-GFP aggregates; 100 μM each, visually examined) of the same compound?
Its value is “dissolution or disruption of pre-formed expanded polyglutamine repeat aggregates were detected”.

What about the “appearance of active caspase-8 (45 kilodalton fragment)” value (caspase-8) of the same compound?
The value was “completely inhibited the appearance of active caspase-8”.
